# Article PMC7504435, “Combined Protein- and Ligand-Observed NMR Workflow to Screen Fragment Cocktails against Multiple Proteins: A Case Study Using Bromodomains” (Molecules, 2020)
# Legend:
# Assay type in all cases: binding
# PfGCN5 bromodomain [1] = target: T1, PfGCN5 bromodomain (Plasmodium falciparum, UniProt Q8IB67); test: 1H CPMG NMR deconvolution of hit mixtures, PfGCN5; conditions: 10 µM protein, 100 µM ligand
# Experimental: (§1) The second step is a ^1H CPMG NMR deconvolution of the hit mixtures using the non-fluorine-labeled bromodomains. ^1H CPMG NMR employs a T2 filter to take advantage of the difference in transverse relaxation time between protein and small molecules to filter out the bound-state ligand(s). Unlike the PrOF NMR assay, a single protein is assayed in each experiment. A binding event is characterized by a decrease in ligand resonance intensity from the ligand alone spectrum to the ligand + protein spectrum. A hit is defined as a decrease in resonance intensity ≥ 20%. The ^1H CPMG NMR assay can be tuned by changing the protein or ligand concentration, filter length (Figure 1), or hit criteria depending on how stringent the desired hit rate is. The number of ^1H CPMG NMR deconvolution experiments is directly informed from the first step. If a mixture from the first step was only a hit for one protein, a single ^1H CPMG NMR deconvolution experiment is needed. If a mixture from the first step was a hit for both proteins, two separate ^1H CPMG NMR deconvolutions experiments are needed to determine the fragments that bind to each protein.
# (§2) ^1H CPMG NMR. ^1H CPMG NMR screen data were acquired on Bruker Avance III HD 500 with the 5 mm Prodigy TCI cryoprobe inverse cryoprobe (^1H 2500:1 S/N). Competition ^1H CPMG NMR data were acquired on Bruker 700 MHz Avance with a CryoProbe 5 mm TXI (^1H S:N with H2O suppression (2mM sucrose) - 900:1) and excitation sculpting water suppression. Proteins were present at 10 µM in 50 mM phosphate, 100 mM NaCl, pH 7.4 in 100% D2O. In separate NMR tubes, a ^1H CPMG NMR pulse was applied to a 1) mixture of ligands (individual ligands present at 100 µM for the screen and 50 µM for competition experiments) and 2) ligands + protein. […] For the competition experiments, τ was increased to 4.0 ms.
# BPTF bromodomain = BPTF bromodomain (Homo sapiens, UniProt Q12830); test: 1H CPMG NMR deconvolution of hit mixtures, BPTF; set-up: deconvolution of the hit mixtures using the non-fluorine-labeled bromodomains; made in house; host or cells: E. coli BL21(DE3); conditions: 10 µM protein, 100 µM ligand
# Experimental: as §1, §2
# PfGCN5 bromodomain [2] = target: T1, PfGCN5 bromodomain; test: biochemical
# Experimental: The screening workflow consists of two dependent steps: 1) a PrOF NMR screen of the 5FW-labeled proteins and a cocktail of 4–5 fragments in a single NMR tube; 2) a ^1H CPMG NMR binding assay to deconvolute the hit mixtures for each protein (Figure 1). In the first step, a dual-protein PrOF NMR spectrum was obtained in which 5FW-PfGCN5, 5FW-BPTF (~ 50 µM each) and mixtures of fragments (400 µM individual fragment) were present in the same NMR tube. […] Chemical shift perturbations indicating a ligand binding event were based on a prior cutoff of Δδ ≥ 0.030 ppm as the definition for a hit mixture. This cutoff was based on a statistical analysis of chemical shift perturbations from a prior BRD4 D1 fragment screen and are described further in the experimental section and in Table S2.
# PrOF NMR. PrOF NMR spectra were obtained on a Bruker Avance III HD 500 with the 5 mm Prodigy TCI inverse cryoprobe (^19F S:N 2000:1). […] The DMSO concentration for all experiments was kept constant at 1%. […] For the PrOF NMR screen, 5FW-BPTF and 5FW-PfGCN5 (35–40 µM in 50 mM phosphate, 100 mM NaCl, pH 7.4) were tested with mixtures of 4–5 fragments, where each individual fragment was 400 µM. […] A 10 Hz line broadening was applied. Titrations were fit to Equation (2), where p is the protein concentration and L is the ligand concentration. (2) Δδ=Δδmax × (Kd+P+L ) − (((Kd + P + L )^2) − 4PL)/2P
# A PrOF NMR binding event is characterized as a change in chemical shift (Δδ) from the protein-only spectrum to the protein + fragment mixture spectrum. We used a prior cutoff of Δδ ≥ 0.030 ppm as the definition of a hit mixture, based on a statistical analysis of chemical shift perturbations from a prior BRD4 D1 fragment screen.
# T1 sequence (Q8IB67 entry or part of it): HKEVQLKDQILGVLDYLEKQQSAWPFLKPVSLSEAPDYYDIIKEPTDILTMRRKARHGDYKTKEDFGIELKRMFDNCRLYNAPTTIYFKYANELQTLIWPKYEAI
smiles,measurement,setting,value
COCC(=O)NC(C)Cc1ccc2c(c1)CCO2 (stereo not drawn) [Fragment F6356-0896],PfGCN5 CPMG % decrease,PfGCN5 bromodomain [1],25%
O=C1CCCC2CN(Cc3ccccc3)CC12 (stereo not drawn) [Fragment F1905-6609],PfGCN5 CPMG % decrease,PfGCN5 bromodomain [1],50%
CS(=O)(=O)NCC(c1ccoc1)N1CCSCC1 (stereo not drawn) [Fragment F6353-5787],PfGCN5 CPMG % decrease,PfGCN5 bromodomain [1],40%
Cc1onc(N)c1S(=O)(=O)N1CCC(C)CC1 [Fragment F2158-1788],PfGCN5 CPMG % decrease,PfGCN5 bromodomain [1],40%
CC(C)(C)C(O)CCNC(=O)COc1ccc(F)cc1 (stereo not drawn) [Fragment F6190-0594],BPTF CPMG % decrease,BPTF bromodomain,48%
CC(C)(C)C(=O)N1CCSC(c2ccccc2)CC1 (stereo not drawn) [Fragment F6481-0067],PfGCN5 CPMG % decrease,PfGCN5 bromodomain [1],53%
"CCOC(=O)Nc1cc(-c2ccc(C)c(NS(C)(=O)=O)c2)nn2c(C)nnc12 [bromosporine, reference compound]","PrOF NMR titration with 5FW-PfGCN5, result in words",PfGCN5 bromodomain [2],slow exchange kinetics
O=C(NCCC(O)C1CC1)Nc1ccccc1Cl (stereo not drawn) [Fragment F6190-0472],BPTF CPMG % decrease,BPTF bromodomain,36%
CC(=O)NCC1COCCN1.CC(=O)NCC1COCCN1.Cl.Cl.Cl (stereo not drawn) [Fragment F2147-1723],BPTF CPMG % decrease,BPTF bromodomain,23%
CCCCC(=O)Nc1sc(C)c(C)c1C(N)=O [Fragment F2590-0203],BPTF CPMG % decrease,BPTF bromodomain,53%
CCCCSc1nnc(-c2cn(C)nc2OC)n1CC [Fragment F5003-0140],PfGCN5 CPMG % decrease,PfGCN5 bromodomain [1],36%
same,BPTF CPMG % decrease,BPTF bromodomain,52%
CCC(C)Sc1nnc(-c2cn(C)nc2OC)n1CC (stereo not drawn) [Fragment F5003-0141],PfGCN5 CPMG % decrease,PfGCN5 bromodomain [1],36%
same,BPTF CPMG % decrease,BPTF bromodomain,52%
Cc1nnc(C2CCN(C(=O)c3ccsc3)CC2)s1 [Fragment F5496-0578],PfGCN5 CPMG % decrease,PfGCN5 bromodomain [1],83%
same,BPTF CPMG % decrease,BPTF bromodomain,55%
CCOCCCNc1ncnc2c1cnn2C [Fragment F1852-0063],BPTF CPMG % decrease,BPTF bromodomain,38%
O=C(C1CC=CCC1)N1CCC(c2ccc3c(c2)OCO3)C1 (stereo not drawn) [Fragment F6518-4331],PfGCN5 CPMG % decrease,PfGCN5 bromodomain [1],58%
C=CCNC1CCN(C)C1=O (stereo not drawn) [Fragment F1905-0298],BPTF CPMG % decrease,BPTF bromodomain,46%
O=C(C1CC1)N1CCCC(Cc2nc(C3CC3)no2)C1 (stereo not drawn) [Fragment F6497-0456],PfGCN5 CPMG % decrease,PfGCN5 bromodomain [1],100%
same,BPTF CPMG % decrease,BPTF bromodomain,100%
COC(C)(CNS(C)(=O)=O)c1cccc(Cl)c1 (stereo not drawn) [Fragment F6452-1288],PfGCN5 CPMG % decrease,PfGCN5 bromodomain [1],57%
same,BPTF CPMG % decrease,BPTF bromodomain,32%
CC(C(=O)NCc1cnn2c1CCCC2)n1cccn1 (stereo not drawn) [Fragment F6513-5793],PfGCN5 CPMG % decrease,PfGCN5 bromodomain [1],49%
same,BPTF CPMG % decrease,BPTF bromodomain,72%
COc1ccc(C2CCCCN(S(C)(=O)=O)C2)cc1 (stereo not drawn) [Fragment F6464-1254],PfGCN5 CPMG % decrease,PfGCN5 bromodomain [1],33%
same,BPTF CPMG % decrease,BPTF bromodomain,69%
Cc1nc(NCCNC(=O)C(C)C)cc(N2CCCC2)n1 [Fragment F5626-0027],PfGCN5 CPMG % decrease,PfGCN5 bromodomain [1],75%
same,BPTF CPMG % decrease,BPTF bromodomain,77%
c1cc(OCC2CO2)ccc1OCC1CO1 (stereo not drawn) [Fragment F0777-0005],BPTF CPMG % decrease,BPTF bromodomain,54%
OCC1CCCN1c1cccc(C(F)(F)F)n1 (stereo not drawn) [Fragment F6541-4533],BPTF CPMG % decrease,BPTF bromodomain,48%
CC(C)(C)OC(=O)N1CCCC(C(=O)O)C1 (stereo not drawn) [Fragment F2158-1186],BPTF CPMG % decrease,BPTF bromodomain,29%
CC12CCC3(C)OCC(CO)(CO1)N23 (stereo not drawn) [Fragment F1983-0015],PfGCN5 CPMG % decrease,PfGCN5 bromodomain [1],50%
Cc1ccc(S(=O)(=O)O)cc1.N#CC1CNCCO1 [Fragment F8880-7458],PfGCN5 CPMG % decrease,PfGCN5 bromodomain [1],24%
CCNc1cc(NCCNC(=O)CC(C)C)nc(C)n1 [Fragment F5626-0058],PfGCN5 CPMG % decrease,PfGCN5 bromodomain [1],47%
same,BPTF CPMG % decrease,BPTF bromodomain,50%
Cc1nnc(CN)o1.Cl [Fragment F2135-1033],BPTF CPMG % decrease,BPTF bromodomain,23%
CC(C)(C)NC(=O)c1cnc2n(c1=O)CCS2 [Fragment F0550-0006],BPTF CPMG % decrease,BPTF bromodomain,63%
COCCCn1c(C(=O)O)cc2c(=O)n(C)c(=O)n(C)c21 [Fragment F9995-1074],PfGCN5 CPMG % decrease,PfGCN5 bromodomain [1],41%
CC(C)CC(=O)NCc1nccc(N(C)C)n1 [Fragment F6438-1301],PfGCN5 CPMG % decrease,PfGCN5 bromodomain [1],50%
O=C1CSCCN1 [Fragment F0848-0336],BPTF CPMG % decrease,BPTF bromodomain,33%
Cc1nc(N2CCCC2)nc(C)c1NS(C)(=O)=O [Fragment F6438-0300],PfGCN5 CPMG % decrease,PfGCN5 bromodomain [1],42%
CC(C)C1NC(=O)CNC1=O (stereo not drawn) [Fragment F2147-0955],PfGCN5 CPMG % decrease,PfGCN5 bromodomain [1],50%
Cc1csc(NC(=O)C2CCNCC2)n1.Cl [Fragment F2158-1471],BPTF CPMG % decrease,BPTF bromodomain,40%
CC(C)C(=O)N1CCN(c2cnnc(N(C)C)c2)CC1 [Fragment F6438-1468],PfGCN5 CPMG % decrease,PfGCN5 bromodomain [1],100%
same,BPTF CPMG % decrease,BPTF bromodomain,62%
Cc1cc(C(=O)N2CC(N3C(=O)CSC3=O)C2)n(C)n1 [Fragment F6473-4843],PfGCN5 CPMG % decrease,PfGCN5 bromodomain [1],25%
CC(C)CS(=O)(=O)C1CN(S(=O)(=O)C(C)C)C1 [Fragment F6442-1971],PfGCN5 CPMG % decrease,PfGCN5 bromodomain [1],22%
CC(C)(C)OC(=O)N1CC(Oc2ncccn2)C1 [Fragment F2158-1792],PfGCN5 CPMG % decrease,PfGCN5 bromodomain [1],68%
same,BPTF CPMG % decrease,BPTF bromodomain,54%
O=C1NCCN1C(=O)NCC(c1ccsc1)N1CCC1 (stereo not drawn) [Fragment F6353-7315],BPTF CPMG % decrease,BPTF bromodomain,23%
CC(C)(C)OC(=O)N1CCC2CNCC21 (stereo not drawn) [Fragment F1905-6593],PfGCN5 CPMG % decrease,PfGCN5 bromodomain [1],21%
C1CC2NCCOC2C1.Cl (stereo not drawn) [Fragment F1905-0651],BPTF CPMG % decrease,BPTF bromodomain,75%
COc1ccccc1C(CNC(=O)C1CC1)OC (stereo not drawn) [Fragment F6451-0004],PfGCN5 CPMG % decrease,PfGCN5 bromodomain [1],26%
CC(C)Nc1nc2c(c(=O)[nH]c(=O)n2C)n1CC(O)CO (stereo not drawn) [Fragment F2477-0016],BPTF CPMG % decrease,BPTF bromodomain,34%
CCCCS(=O)(=O)N1CC(S(=O)(=O)CC(C)C)C1 [Fragment F6442-1973],PfGCN5 CPMG % decrease,PfGCN5 bromodomain [1],26%
Cc1cc(C)n(CC2CCNCC2)n1.Cl.Cl [Fragment F2145-0759],BPTF CPMG % decrease,BPTF bromodomain,29%
COC(CNC(=O)C1CN(C(=O)c2cc(C)on2)C1)OC [Fragment F6125-0675],BPTF CPMG % decrease,BPTF bromodomain,32%
CCC(=O)NCc1nc(C)cc(N2CCOCC2)n1 [Fragment F6438-0864],PfGCN5 CPMG % decrease,PfGCN5 bromodomain [1],67%
CCCSc1nnc2[nH]c(=O)c(C)c(C)n12 [Fragment F2513-0609],BPTF CPMG % decrease,BPTF bromodomain,46%
Cc1c(C(=O)O)n[nH]c1C1CC1 [Fragment F2185-0055],PfGCN5 CPMG % decrease,PfGCN5 bromodomain [1],29%
same,BPTF CPMG % decrease,BPTF bromodomain,31%
Cc1nnc(SCC(=O)N2CCCCCC2)n(N)c1=O [Fragment F1847-0012],BPTF CPMG % decrease,BPTF bromodomain,36%
Cc1ccc(C)c(S(=O)(=O)N2CCCC2C(=O)O)c1 (stereo not drawn) [Fragment F2189-0042],PfGCN5 CPMG % decrease,PfGCN5 bromodomain [1],32%
same,BPTF CPMG % decrease,BPTF bromodomain,35%
CSCCC(C)(O)CNC(=O)NC1CCOCC1 (stereo not drawn) [Fragment F6089-9820],BPTF CPMG % decrease,BPTF bromodomain,23%
